From US8796256B2 (Janssen Pharmaceutica NV, priority 2010, dated 2014)

biological target: T1, ERR1 (also known as ERR-α or ERR-1) (Homo sapiens, UniProt P11474); experiment: TR-FRET assay (disruption of co-activator peptide binding to ERR1 LBD); format: biochemical; details: 6 nM 6His-ERR1LBD, 6 nM GST-SRC-2 peptide; average of 3 independent experiments
T1 sequence (P11474 193-421 limits assumed): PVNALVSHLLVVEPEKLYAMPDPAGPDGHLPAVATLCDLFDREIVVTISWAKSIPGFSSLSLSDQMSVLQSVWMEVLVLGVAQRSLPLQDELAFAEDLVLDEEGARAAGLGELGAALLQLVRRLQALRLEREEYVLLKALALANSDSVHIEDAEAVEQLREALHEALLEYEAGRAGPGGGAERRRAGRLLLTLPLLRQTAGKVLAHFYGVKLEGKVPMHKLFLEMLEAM
Procedure, shortened: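 His-tagged ERR1 ligand-binding domain and GST-labelled SRC-2 peptide, each 6 nM, equilibrated at 25° C for 4-18 h in Tris pH 8/Hepes/KCl/DTT/delipidated BSA buffer. Compound-induced loss of co-activator binding read as Eu cryptate→XL665 energy transfer; values from hyperbolic curve fits averaged over 3 independent runs.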

Row | SMILES | EC50
1 | O=C(O)C(C1CCOCC1)N1C(=O)S/C(=C\c2ccc3c(cnn3Cc3ccc(Cl)cc3C(F)(F)F)c2)C1=O (centres unmarked) [Compound 219, [(5Z)-5-({1-[4-Chloro-2-(trifluoromethyl)benzyl]-1H-indazol-5-yl}methylidene)-2,4-dioxo-1,3-thiazolidin-3-yl](tetrahydro-2H-pyran-4-yl)acetic acid] | 42 nM
2 | CS(=O)(=O)CCN1C(=O)S/C(=C\c2ccc3c(cnn3Cc3ccc(Cl)cc3C(F)(F)F)c2)C1=O [Compound 129, (5Z)-5-({1-[4-Chloro-2-(trifluoromethyl)benzyl]-1H-indazol-5-yl}methylidene)-3-[2-(methylsulfonyl)ethyl]-1,3-thiazolidine-2,4-dione] | 18 nM
3 | COC(=O)C(Cc1cn(C)cn1)N1C(=O)S/C(=C\c2ccc3c(cnn3Cc3ccc(Cl)cc3C(F)(F)F)c2)C1=O (centres unmarked) [Compound 214, Methyl 2-[(5Z)-5-({1-[4-chloro-2-(trifluoromethyl)benzyl]-1H-indazol-5-yl}methylidene)-2,4-dioxo-1,3-thiazolidin-3-yl]-3-(1-methyl-1H-imidazol-4-yl)propanoate] | 44 nM
4 | CC(C)(C)NCCN1C(=O)S/C(=C\c2ccc3c(cnn3Cc3ccc(Cl)cc3C(F)(F)F)c2)C1=O [Compound 46, (5Z)-3-[2-(tert-Butylamino)ethyl]-5-({1-[4-chloro-2-(trifluoromethyl)benzyl]-1H-indazol-5-yl}methylidene)-1,3-thiazolidine-2,4-dione] | 19 nM
5 | O=C1S/C(=C\c2ccc3c(cnn3Cc3ccc(C(F)(F)F)cc3C(F)(F)F)c2)C(=O)N1CCn1cncn1 [Compound 66, (5Z)-5-({1-[2,4-Bis(trifluoromethyl)benzyl]-1H-indazol-5-yl}methylidene)-3-[2-(1H-1,2,4-triazol-1-yl)ethyl]-1,3-thiazolidine-2,4-dione] | 16 nM
6 | O=C1S/C(=C\c2ccc3c(cnn3[C@@H]3CCc4cc(Cl)ccc43)c2)C(=O)N1CCN1CCCC1 [Compound 178, (5Z)-5-({1-[(1R)-5-Chloro-2,3-dihydro-1H-inden-1-yl]-1H-indazol-5-yl}methylidene)-3-(2-pyrrolidin-1-ylethyl)-1,3-thiazolidine-2,4-dione] | 9700 nM
7 | COc1ccc(Cn2ncc3cc(/C=C4\SC(=O)N(CCN5CC[C@H](O)C5)C4=O)ccc32)c(C(F)(F)F)c1 [Compound 14, (5Z)-3-{2-[(3S)-3-Hydroxypyrrolidin-1-yl]ethyl}-5-({1-[4-methoxy-2-(trifluoromethyl)benzyl]-1H-indazol-5-yl}methylidene)-1,3-thiazolidine-2,4-dione] | 100 nM
8 | O=C1S/C(=C\c2ccc3c(cnn3Cc3ccc(Cl)cc3C(F)(F)F)c2)C(=O)N1CCc1ccncc1 [Compound 108, (5Z)-5-({1-[4-Chloro-2-(trifluoromethyl)benzyl]-1H-indazol-5-yl}methylidene)-3-(2-pyridin-4-ylethyl)-1,3-thiazolidine-2,4-dione] | 102 nM
9 | NS(=O)(=O)CN1C(=O)S/C(=C\c2ccc3c(cnn3Cc3ccc(F)cc3C(F)(F)F)c2)C1=O [Compound 61, 1-[(5Z)-5-({1-[4-Fluoro-2-(trifluoromethyl)benzyl]-1H-indazol-5-yl}methylidene)-2,4-dioxo-1,3-thiazolidin-3-yl]methanesulfonamide] | 269 nM
10 | O=C1S/C(=C\c2ccc3c(cnn3Cc3ccc(Cl)cc3C(F)(F)F)c2)C(=O)N1CCN1CC[C@H](O)C1 [Compound 1] | 130 nM
11 | COCCN1C[C@H](O)C[C@H]1CN1C(=O)S/C(=C\c2ccc3c(cnn3Cc3ccc(Cl)cc3C(F)(F)F)c2)C1=O [Compound 188, (5Z)-5-({1-[4-Chloro-2-(trifluoromethyl)benzyl]-1H-indazol-5-yl}methylidene)-3-{[(2S,4R)-4-hydroxy-1-(2-methoxyethyl)pyrrolidin-2-yl]methyl}-1,3-thiazolidine-2,4-dione] | 60 nM
12 | NC[C@H]1CC[C@H](CN2C(=O)S/C(=C\c3ccc4c(cnn4Cc4ccc(Cl)cc4C(F)(F)F)c3)C2=O)CC1 [Compound 106, (5Z)-3-{[trans-4-(Aminomethyl)cyclohexyl]methyl}-5-({1-[4-chloro-2-(trifluoromethyl)benzyl]-1H-indazol-5-yl}methylidene)-1,3-thiazolidine-2,4-dione] | 350 nM
13 | O=C1S/C(=C\c2ccc3c(cnn3Cc3ccc(Cl)cc3C(F)(F)F)c2)C(=O)N1C1(C(=O)O)CCC1 [Compound 235, 1-[(5Z)-5-({1-[4-Chloro-2-(trifluoromethyl)benzyl]-1H-indazol-5-yl}methylidene)-2,4-dioxo-1,3-thiazolidin-3-yl]cyclobutanecarboxylic acid] | 45 nM
14 | CN(C)CCN1C(=O)S/C(=C\c2ccc3c(cnn3Cc3ccc(C(F)(F)F)cc3C(F)(F)F)c2)C1=O [Compound 7, (5Z)-5-[(1-{[2,4-Bis(trifluoromethyl)-phenyl]methyl}-1 H-indazol-5-yl)methylidene]-3-[2-(dimethylamino)-ethyl]-1,3-thiazolidine-2,4-dione] | 33 nM
15 | O=C1S/C(=C\c2ccc3c(cnn3Cc3ccc(Cl)cc3C(F)(F)F)c2)C(=O)N1C[C@@H]1COCCN1 [Compound 198, (5Z)-5-({1-[4-Chloro-2-(trifluoromethyl)benzyl]-1H-indazol-5-yl}methylidene)-3-[(3R)-morpholin-3-ylmethyl]-1,3-thiazolidine-2,4-dione] | 31 nM

Continued, values first:

Row | EC50 | SMILES
16 | 24 nM | CN1CCN(N2C(=O)S/C(=C\c3ccc4c(cnn4Cc4ccc(Cl)cc4C(F)(F)F)c3)C2=O)CC1 [Compound 349, (5Z)-5-({1-[4-Chloro-2-(trifluoromethyl)benzyl]-1H-indazol-5-yl}methylidene)-3-(4-methylpiperazin-1-yl)-1,3-thiazolidine-2,4-dione]
17 | 63 nM | O=C1S/C(=C\c2ccc3c(cnn3Cc3ccc(Cl)cc3C(F)(F)F)c2)C(=O)N1C[C@H](O)CN1CC[C@@H](F)C1 [Compound 294, (5Z)-5-({1-[4-Chloro-2-(trifluoromethyl)benzyl]-1H-indazol-5-yl}methylidene)-3-{(2R)-3-[(3R)-3-fluoropyrrolidin-1-yl]-2-hydroxypropyl}-1,3-thiazolidine-2,4-dione]
18 | 456 nM | O=C1S/C(=C\c2ccc3c(cnn3Cc3ccc(Cl)cc3C(F)(F)F)c2)C(=O)N1C[C@@H]1C[C@H](O)CN1 (stereo in doubt) [Compound 286, (5Z)-5-({1-[4-Chloro-2-(trifluoromethyl)benzyl]-1H-indazol-5-yl}methylidene)-3-{[(2S,4S)-4-hydroxypyrrolidin-2-yl]methyl}-1,3-thiazolidine-2,4-dione]
19 | 3 nM | CS(=O)(=O)NN1C(=O)S/C(=C\c2ccc3c(c2)c(F)nn3Cc2ccc(Cl)cc2C(F)(F)F)C1=O [Compound 368, N-[(5Z)-5-({1-[4-Chloro-2-(trifluoromethyl)benzyl]-3-fluoro-1H-indazol-5-yl}methylidene)-2,4-dioxo-1,3-thiazolidin-3-yl]methanesulfonamide]
20 | 25 nM | O=C1S/C(=C\c2ccc3c(cnn3Cc3ccc(Cl)cc3C(F)(F)F)c2)C(=O)N1[C@@H]1CCNC[C@H]1O (relative stereo) [Compound 270, (5Z)-5-({1-[4-Chloro-2-(trifluoromethyl)-benzyl]-1H-indazol-5-yl}methylidene)-3-[trans-3-hydroxypiperidin-4-yl]-1,3-thiazolidine-2,4-dione]
21 | 70 nM | CN(C)CCN1C(=O)S/C(=C\c2ccc3c(ccn3Cc3ccc(C(F)(F)F)cc3C(F)(F)F)c2)C1=O [Compound 240, (5Z)-5-[(1-{[2,4-Bis(trifluoromethyl)-phenyl]methyl}-1H-indol-5-yl)methylidene]-3-[2-(dimethylamino)ethyl]-1,3-thiazolidine-2,4-dione]
22 | 830 nM | NC1(CN2C(=O)S/C(=C\c3ccc4c(cnn4Cc4ccc(Cl)cc4C(F)(F)F)c3)C2=O)CCC1 [Compound 314, (5Z)-3-[(1-Aminocyclobutyl)methyl]-5-({1-[4-chloro-2-(trifluoromethyl)benzyl]-1H-indazol-5-yl}methylidene)-1,3-thiazolidine-2,4-dione]
23 | 49 nM | O=C1S/C(=C\c2ccc3c(cnn3Cc3ccc(Cl)cc3C(F)(F)F)c2)C(=O)N1C[C@@H](O)CN1CCCC1 [Compound 292, (5Z)-5-({1-[4-Chloro-2-(trifluoromethyl)benzyl]-1H-indazol-5-yl}methylidene)-3-[(2S)-2-hydroxy-3-pyrrolidin-1-ylpropyl]-1,3-thiazolidine-2,4-dione]
24 | 14 nM | CC(=O)NN1C(=O)S/C(=C\c2ccc3c(cnn3Cc3ccc(Cl)cc3C(F)(F)F)c2)C1=O [Compound 356, N-[(5Z)-5-({1-[4-Chloro-2-(trifluoromethyl)benzyl]-1H-indazol-5-yl}methylidene)-2,4-dioxo-1,3-thiazolidin-3-yl]acetamide]
25 | 38 nM | O=C1S/C(=C\c2ccc3c(cnn3Cc3ccc(C(F)(F)F)cc3C(F)(F)F)c2)C(=O)N1[C@@H]1CCNC[C@H]1O (relative stereo) [Compound 271, (5Z)-5-({1-[2,4-Bis(trifluoromethyl)benzyl]-1H-indazol-5-yl}methylidene)-3-[trans-3-hydroxypiperidin-4-yl]-1,3-thiazolidine-2,4-dione]
26 | 48 nM | CS(=O)(=O)NN1C(=O)S/C(=C\c2ccc3c(cnn3Cc3ccc(Cl)cc3C(F)(F)F)c2F)C1=O [Compound 370, N-[(5Z)-5-({1-[4-Chloro-2-(trifluoromethyl)benzyl]-4-fluoro-1H-indazol-5-yl}methylidene)-2,4-dioxo-1,3-thiazolidin-3-yl]methanesulfonamide]
